Experimental data reported in publication PMC3567233 (Biochemistry, 2012).

Test system: M. bovis BCG transmembrane potential (ΔΨ)
Format: cell-based, Mycobacterium bovis BCG
Conditions: pH 7.2

In the case of `N#CC(C#N)=NNc1cccc(Cl)c1` [CCCP, carbonyl cyanide m-chlorophenylhydrazone], the “DiOC2 red / green fluorescence ratio, M. bovis” value is reported as 0.086±0.003.
